We go through 4 compounds from US20240294566A1, “ESTROGEN RECEPTOR BETA SELECTIVE LIGANDS” (Or-Genix Therapeutics, Inc., priority 2016, published 2024).

The target in experiment [1] is T1, ERα (Homo sapiens, UniProt P03372).
T1 sequence (P03372 1-595): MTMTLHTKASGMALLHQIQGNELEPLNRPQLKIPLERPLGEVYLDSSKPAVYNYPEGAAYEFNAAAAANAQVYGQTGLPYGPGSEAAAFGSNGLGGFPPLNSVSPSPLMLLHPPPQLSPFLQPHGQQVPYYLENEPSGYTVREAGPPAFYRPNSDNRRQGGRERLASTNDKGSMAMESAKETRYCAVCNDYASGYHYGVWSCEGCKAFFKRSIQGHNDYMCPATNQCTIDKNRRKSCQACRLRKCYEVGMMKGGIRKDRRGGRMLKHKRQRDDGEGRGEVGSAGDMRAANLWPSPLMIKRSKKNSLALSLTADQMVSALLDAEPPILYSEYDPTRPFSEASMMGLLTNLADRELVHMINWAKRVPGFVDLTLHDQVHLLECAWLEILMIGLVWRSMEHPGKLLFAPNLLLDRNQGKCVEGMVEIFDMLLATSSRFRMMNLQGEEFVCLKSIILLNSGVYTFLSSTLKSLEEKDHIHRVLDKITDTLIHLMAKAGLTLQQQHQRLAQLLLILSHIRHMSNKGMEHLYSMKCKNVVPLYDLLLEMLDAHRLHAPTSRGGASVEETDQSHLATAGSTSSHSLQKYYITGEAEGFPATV
The experiment can be described thus: Binding assay, inhibition of [3H] estradiol binding to hER. The protocol: (§1) Structures 3 and 3' were tested in a binding assay for ERβ and ERα as described in Obourn […]. & Notides A. C. Hormone-and DNA-Binding Mechanisms of the Recombinant Human Estrogen Receptor. Biochemistry 32, 6229-6236 (1993). Briefly, agonist binding of Structure 3 and Structure 3' to ERα and ERβ were assessed by Scatchard analysis measuring inhibition of [^3H] estradiol binding to hER by Structure 3 and 3'.

The target in experiment [2] is T2, ERβ (Homo sapiens, UniProt Q92731). The description is as above. To be noted: FIG. 2. How it is done:
as §1
Target sequence in this assay (Q92731 whole entry): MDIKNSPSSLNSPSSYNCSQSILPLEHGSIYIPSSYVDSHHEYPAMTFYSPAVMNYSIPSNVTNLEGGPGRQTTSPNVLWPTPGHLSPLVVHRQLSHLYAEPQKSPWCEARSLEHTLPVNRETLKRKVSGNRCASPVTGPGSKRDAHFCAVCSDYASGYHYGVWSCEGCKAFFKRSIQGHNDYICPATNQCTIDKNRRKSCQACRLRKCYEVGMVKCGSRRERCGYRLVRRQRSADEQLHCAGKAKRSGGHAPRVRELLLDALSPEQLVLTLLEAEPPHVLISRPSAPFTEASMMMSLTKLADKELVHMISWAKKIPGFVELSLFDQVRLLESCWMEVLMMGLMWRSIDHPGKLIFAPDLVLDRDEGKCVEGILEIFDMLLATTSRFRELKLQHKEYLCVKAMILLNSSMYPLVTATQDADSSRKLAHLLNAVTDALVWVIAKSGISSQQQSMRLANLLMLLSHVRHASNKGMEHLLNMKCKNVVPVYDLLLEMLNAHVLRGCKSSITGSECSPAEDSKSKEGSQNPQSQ

Experiment [3] deals with T1, ERα. The experiment can be described thus: Dual estrogen receptor TR-FRET functional assay. The note with it: dual ER TR-FRET assay. The class given is biochemical. The protocol: (§2) Structures 3 and 3' were tested in a functional assay for ERβ and ERα as described in […]., Puetter V., Otto C. Parczyk K. & Bader B. A Dual Estrogen Receptor TR-FRET Assay for Simultaneous Measurement of Steroid Site Binding and Coactivator Recruitment. J Biomolec Screening 15, 268-278 (2010). Briefly, agonist binding of Structures 3 and 3' to ERα and ERβ were assessed by a dual estrogen receptor TR-FRET assay.
For orientation: Time-resolved FRET reads energy transfer from a long-lived donor to a nearby acceptor.

For experiment [4], the target named is T2, ERβ. The experiment can be described thus: Dual estrogen receptor TR-FRET functional assay. The class given is biochemical. The note with it: dual ER TR-FRET assay, FIG. 3. How it is done: as §2
Target sequence in this assay (Q92731 whole entry): as above
In experiment [5] the target is T2, ERβ. Nature of the experiment: Homogeneous in vitro functional assay, coactivator recruitment (FRET). The experiment is classed as biochemical. The note with it: for selectivity for ERβ: ERβ over ERα, functional assay. The protocol: (§3) Structures 15 and 15′ were tested in a functional assay for ERβ and ERα as described in Liu J. et al. A Homogeneous in Vitro Functional Assay for Estrogen Receptors: Coactivator Recruitment. Mol Endocrinology 17, 346-355 (2003). Briefly, a homogeneous in vitro functional assay for measuring ligand-dependent transactivation function of ERαa and ERβ was used to measure selectivity of structures 15 and 15′ as agonists for the two classes of receptors. Briefly, agonist binding of Structures 15 and 15′ were assessed by measuring Fluorescence Resonance Energy Transfer (FRET) between europium that is associated with ligand binding domains of ERα and ERβ, and allophycocyanine that is associated with co-activator peptide that is recruited to the LBD in response to agonist binding.
Target sequence in this assay (Q92731 264-498 limits assumed): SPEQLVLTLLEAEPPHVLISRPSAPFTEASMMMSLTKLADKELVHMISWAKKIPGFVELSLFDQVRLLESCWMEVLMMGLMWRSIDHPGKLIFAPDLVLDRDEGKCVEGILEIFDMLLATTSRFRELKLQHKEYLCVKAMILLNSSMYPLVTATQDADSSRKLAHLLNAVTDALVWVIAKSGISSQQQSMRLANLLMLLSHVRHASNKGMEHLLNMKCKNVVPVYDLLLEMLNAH

Experiment [6] deals with T3, ERα (Homo sapiens, UniProt P03372).
T3 sequence (P03372 311-547 limits assumed): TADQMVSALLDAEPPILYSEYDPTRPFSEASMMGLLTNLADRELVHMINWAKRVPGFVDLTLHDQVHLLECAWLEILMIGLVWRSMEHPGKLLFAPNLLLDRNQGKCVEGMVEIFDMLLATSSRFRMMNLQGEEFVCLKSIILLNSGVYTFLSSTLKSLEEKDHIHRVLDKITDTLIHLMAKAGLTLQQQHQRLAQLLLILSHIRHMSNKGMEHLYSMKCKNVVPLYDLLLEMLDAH
The experiment is described as above. The note with it: FIG. 1. The experiment is classed as biochemical. The protocol:
as §3

Some results are limits rather than exact numbers.

Broadly, the IC50 is the concentration at which inhibition is half-maximal. Usually EC50 stands for the concentration at which the effect is half-maximal. A lower EC50 goes with greater potency. On to `CCOC(=O)[C@H]1C[C@H]2[C@@H]3CCc4cc(O)ccc4[C@H]3CC[C@]2(C)[C@H]1O` [Structure 3], for which the figures for the IC50 at ERα [1] (FIG. 2) and on ERβ [2] were 78 nM and 100 nM, respectively. In addition, the figures for the EC50 on ERα [3] (FIG. 3A) and on ERβ [4] were 1080 nM and 3000 nM, respectively.
Take `COC(=O)CC[C@H]1C[C@H]2[C@@H]3CCc4cc(O)ccc4[C@H]3CC[C@]2(C)[C@H]1O` [Compound 15]: at ERβ [5], the “selectivity for ERβ” value was greater than 10 fold. Besides, the EC50 was roughly 10000 nM on ERβ [5] (functional coactivator recruitment FRET assay, FIG. 1) and greater than 100000 nM at ERα [6].
Turning to `CCOC(=O)[C@@H]1C[C@H]2[C@@H]3CCc4cc(O)ccc4[C@H]3CC[C@]2(C)[C@H]1O` [Structure 3′, reference compound], the IC50 on ERα [1] (FIG. 2B) was 1.46 nM; on ERβ [2], 140 nM. The EC50 at ERα [3] (FIG. 3B) was 5.92 nM; at ERβ [4] it was greater than 10000 nM.
With `COC(=O)CC[C@@H]1C[C@H]2[C@@H]3CCc4cc(O)ccc4[C@H]3CC[C@]2(C)[C@H]1O` [Compound 15′, reference compound], the “selectivity for ERβ” value on ERβ [5] is reported as roughly 2 fold.
